Experiments:
[1] = target: Histamine H2 receptor (Homo sapiens, UniProt P25021); assay type: cell membranes, CHO-K1, Membrane; details: cho-k1; note: in other assays of this panel Not Active means under 50% inhibition at 10 µM
[2] = target: Delta-type opioid receptor (Homo sapiens, UniProt P41143); assay type: cell membranes, HEK293, Membrane; details: hek293; note: in other assays of this panel Not Active means under 50% inhibition at 10 µM
[3] = target: T1, 3-hydroxy-3-methylglutaryl-coenzyme A reductase (Homo sapiens, UniProt P04035); design: species or system Escherichia coli;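 note: enzyme inhibition assay of HMG-CoA reductase using radiolabeled [14C]HMG-CoA as substrate; in other assays of this panel Not Active means under 50% inhibition at 10 µM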
T1 sequence (P04035 whole entry): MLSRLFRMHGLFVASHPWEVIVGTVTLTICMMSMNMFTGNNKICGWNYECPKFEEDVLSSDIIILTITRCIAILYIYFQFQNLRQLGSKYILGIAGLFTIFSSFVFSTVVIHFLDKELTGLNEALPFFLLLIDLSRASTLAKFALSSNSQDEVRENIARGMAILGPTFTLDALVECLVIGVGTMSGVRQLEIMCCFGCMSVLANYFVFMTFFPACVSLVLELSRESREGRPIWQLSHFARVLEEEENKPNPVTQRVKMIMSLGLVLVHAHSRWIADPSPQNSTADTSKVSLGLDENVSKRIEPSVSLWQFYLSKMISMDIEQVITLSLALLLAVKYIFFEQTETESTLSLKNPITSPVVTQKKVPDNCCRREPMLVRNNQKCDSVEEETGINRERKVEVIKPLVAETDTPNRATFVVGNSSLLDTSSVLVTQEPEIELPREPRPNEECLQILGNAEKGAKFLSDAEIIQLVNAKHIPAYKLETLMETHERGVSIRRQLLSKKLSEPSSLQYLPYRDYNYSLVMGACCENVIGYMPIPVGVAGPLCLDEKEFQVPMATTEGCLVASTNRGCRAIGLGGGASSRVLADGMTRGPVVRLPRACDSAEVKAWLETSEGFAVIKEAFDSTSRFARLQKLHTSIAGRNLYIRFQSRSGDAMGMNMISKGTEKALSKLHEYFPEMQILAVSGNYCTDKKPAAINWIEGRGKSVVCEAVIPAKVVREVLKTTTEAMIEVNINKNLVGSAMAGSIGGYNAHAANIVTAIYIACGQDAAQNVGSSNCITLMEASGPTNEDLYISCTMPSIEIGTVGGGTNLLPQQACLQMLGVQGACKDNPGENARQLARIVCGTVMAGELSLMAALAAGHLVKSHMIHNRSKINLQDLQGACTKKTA

[4] = target: T2, Polyunsaturated fatty acid lipoxygenase ALOX15 (Oryctolagus cuniculus, UniProt P12530); experiment: biochemical; assay type: tissue-based, Reticulocytes; details: reticulocytes;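 note: inhibition of 15-lipoxygenase enzyme activity measured with linoleic acid as the substrate; in other assays of this panel Not Active means under 50% inhibition at 10 µM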
T2 sequence (P12530 whole entry): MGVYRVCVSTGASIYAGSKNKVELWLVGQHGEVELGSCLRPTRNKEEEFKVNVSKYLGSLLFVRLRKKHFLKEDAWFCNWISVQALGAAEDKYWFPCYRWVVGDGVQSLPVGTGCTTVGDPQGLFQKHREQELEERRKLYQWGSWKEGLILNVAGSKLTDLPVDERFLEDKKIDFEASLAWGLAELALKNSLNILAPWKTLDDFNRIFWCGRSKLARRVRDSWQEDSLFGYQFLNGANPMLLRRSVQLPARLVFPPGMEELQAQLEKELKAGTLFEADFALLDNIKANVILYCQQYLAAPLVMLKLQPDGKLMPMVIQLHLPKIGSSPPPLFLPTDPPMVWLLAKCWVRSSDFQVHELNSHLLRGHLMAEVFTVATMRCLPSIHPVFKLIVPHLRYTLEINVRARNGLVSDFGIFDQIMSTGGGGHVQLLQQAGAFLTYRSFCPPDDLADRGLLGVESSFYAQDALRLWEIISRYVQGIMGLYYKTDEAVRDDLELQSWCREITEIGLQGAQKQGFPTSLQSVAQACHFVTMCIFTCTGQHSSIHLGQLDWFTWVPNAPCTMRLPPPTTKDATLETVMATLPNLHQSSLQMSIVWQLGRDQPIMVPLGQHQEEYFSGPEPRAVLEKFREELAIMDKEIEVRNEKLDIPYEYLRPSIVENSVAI

[5] = target: T3, Progesterone receptor (Bos taurus, UniProt Q690N0); experiment: DRUGMATRIX: Progesterone radioligand binding (ligand: [3H] R-5020); assay type: tissue-based, Uterus; details: Not Active = under 50% inhibition at 10 µM; for Ki: read-out: Ki
T3 sequence (Q690N0 whole entry): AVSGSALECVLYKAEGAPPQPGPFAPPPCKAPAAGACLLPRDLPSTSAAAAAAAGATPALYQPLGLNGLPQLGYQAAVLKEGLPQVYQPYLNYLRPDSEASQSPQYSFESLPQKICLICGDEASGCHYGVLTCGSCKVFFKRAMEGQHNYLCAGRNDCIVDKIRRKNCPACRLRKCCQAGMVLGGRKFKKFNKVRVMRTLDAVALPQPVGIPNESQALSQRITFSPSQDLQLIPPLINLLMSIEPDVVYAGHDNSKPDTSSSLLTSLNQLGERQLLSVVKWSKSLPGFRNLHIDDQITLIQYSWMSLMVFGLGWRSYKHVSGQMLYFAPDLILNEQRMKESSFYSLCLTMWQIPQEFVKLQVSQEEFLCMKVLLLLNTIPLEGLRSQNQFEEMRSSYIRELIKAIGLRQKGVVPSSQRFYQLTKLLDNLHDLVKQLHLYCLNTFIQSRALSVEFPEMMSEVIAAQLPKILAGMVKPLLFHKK

[6] = target: cGMP-specific 3',5'-cyclic phosphodiesterase (Homo sapiens, UniProt O76074); experiment: DRUGMATRIX: Phosphodiesterase PDE5 enzyme inhibition (substrate: [3H]cGMP + cGMP); assay type: tissue-based, Platelet; details: platelet; Not Active = under 50% inhibition at 10 µM
[7] = target: T4, Muscarinic acetylcholine receptor M2 (Homo sapiens, UniProt P08172); assay type: cell membranes, CHO-K1, Membrane; note: in other assays of this panel Not Active means under 50% inhibition at 10 µM
T4 sequence (P08172 whole entry): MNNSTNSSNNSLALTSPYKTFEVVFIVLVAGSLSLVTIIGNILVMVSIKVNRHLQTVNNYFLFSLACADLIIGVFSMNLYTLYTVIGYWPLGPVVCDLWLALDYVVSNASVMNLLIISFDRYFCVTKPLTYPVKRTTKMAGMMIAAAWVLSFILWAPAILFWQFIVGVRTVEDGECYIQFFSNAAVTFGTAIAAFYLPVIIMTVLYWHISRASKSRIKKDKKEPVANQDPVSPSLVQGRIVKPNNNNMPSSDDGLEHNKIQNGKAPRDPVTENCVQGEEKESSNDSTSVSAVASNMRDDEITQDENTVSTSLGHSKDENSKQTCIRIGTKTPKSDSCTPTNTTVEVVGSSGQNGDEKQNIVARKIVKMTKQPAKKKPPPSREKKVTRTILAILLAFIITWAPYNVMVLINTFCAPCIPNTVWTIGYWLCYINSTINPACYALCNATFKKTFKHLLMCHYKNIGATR

Sequence of Histamine H2 receptor (P25021 whole entry): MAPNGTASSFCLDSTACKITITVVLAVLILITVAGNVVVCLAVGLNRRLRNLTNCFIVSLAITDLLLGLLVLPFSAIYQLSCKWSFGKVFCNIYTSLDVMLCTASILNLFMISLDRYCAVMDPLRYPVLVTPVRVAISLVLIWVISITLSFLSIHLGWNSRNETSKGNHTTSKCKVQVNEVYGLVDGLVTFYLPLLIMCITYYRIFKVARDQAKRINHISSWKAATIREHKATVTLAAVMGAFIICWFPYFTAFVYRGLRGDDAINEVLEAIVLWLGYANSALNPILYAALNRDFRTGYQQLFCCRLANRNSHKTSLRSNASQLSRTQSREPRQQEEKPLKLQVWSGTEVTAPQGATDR
Sequence of Delta-type opioid receptor (P41143 whole entry): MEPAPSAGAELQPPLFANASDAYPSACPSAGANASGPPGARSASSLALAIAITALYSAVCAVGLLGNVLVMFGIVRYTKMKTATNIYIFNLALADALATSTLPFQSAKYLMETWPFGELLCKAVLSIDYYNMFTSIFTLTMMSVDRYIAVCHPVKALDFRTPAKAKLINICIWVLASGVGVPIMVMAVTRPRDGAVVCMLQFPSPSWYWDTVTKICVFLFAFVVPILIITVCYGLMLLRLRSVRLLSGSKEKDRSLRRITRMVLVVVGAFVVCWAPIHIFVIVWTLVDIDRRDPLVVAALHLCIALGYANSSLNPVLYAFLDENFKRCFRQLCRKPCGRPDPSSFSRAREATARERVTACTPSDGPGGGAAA

Row | Structure (SMILES) | IC50 [1] | IC50 [2] | IC50 [3] | IC50 [4] | IC50 [5] | IC50 [6] | IC50 ([7]; cho-k1) | IC50 ([5]; read-out: IC50) | Ki [5] | IC50 ([7]; read-out: IC50) | Ki ([7]; read-out: Ki)
1 | CN(C)CCCC1(c2ccc(F)cc2)OCc2cc(C#N)ccc21 (stereo not given) [CITALOPRAM] | Not Active | Not Active | Not Active | Not Active | Not Active | Not Active | Not Active |  |  |  | 
2 | COC(=O)[C@H](c1ccccc1Cl)N1CCc2sccc2C1 [CLOPIDOGREL] | Not Active | Not Active | Not Active | Not Active | Not Active | Not Active | Not Active |  |  |  | 
3 | C[C@]12CCC(=O)C=C1CC[C@@H]1[C@@H]2C(=O)C[C@@]2(C)[C@H]1CC[C@]2(O)C(=O)CO [CORTISONE] | Not Active | Not Active | Not Active | Not Active | Not Active | Not Active | Not Active |  |  |  | 
4 | Cc1ccccc1N1CCN(CCc2nnc3n2CCCC3)CC1 [DAPIPRAZOLE] | Not Active | Not Active | Not Active | Not Active | Not Active | Not Active | Not Active |  |  |  | 
5 | CC1=Nc2ccc(Cl)cc2S(=O)(=O)N1 [DIAZOXIDE] | Not Active | Not Active | Not Active | Not Active | Not Active | Not Active | Not Active |  |  |  | 
6 | CC(=O)OCC(=O)[C@@]1(OC(C)=O)[C@@H](C)C[C@H]2[C@@H]3C[C@H](F)C4=CC(=O)C=C[C@]4(C)[C@@]3(F)[C@@H](O)C[C@@]21C [DIFLORASONE DIACETATE] | Not Active | Not Active | Not Active | Not Active |  | Not Active | Not Active | 116 nM | 15 nM |  | 
7 | COc1ccc([C@@H]2Sc3ccccc3N(CCN(C)C)C(=O)[C@@H]2OC(C)=O)cc1 [DILTIAZEM] | Not Active | Not Active | Not Active | Not Active | Not Active | Not Active | Not Active |  |  |  | 
8 | CCc1ccc(C(=O)C(C)CN2CCCCC2)cc1 (stereo not given) [EPERISONE] | Not Active | Not Active | Not Active | Not Active | Not Active | Not Active |  |  |  | 2340 nM | 831 nM
9 | C=C1CC[C@H](O)C/C1=C/C=C1\CCC[C@]2(C)[C@@H]([C@H](C)/C=C/[C@H](C)C(C)C)CC[C@@H]12 [ERGOCALCIFEROL] | Not Active | Not Active | Not Active | Not Active | Not Active | Not Active | Not Active |  |  |  | 
10 | CN1C[C@H](C(=O)N[C@]2(C)O[C@@]3(O)[C@@H]4CCCN4C(=O)[C@H](Cc4ccccc4)N3C2=O)C=C2c3cccc4[nH]cc(c34)C[C@H]21 [ERGOTAMINE] | Not Active | Not Active | Not Active | Not Active | Not Active | Not Active | Not Active |  |  |  | 
11 | CCc1cccc2c3c([nH]c12)C(CC)(CC(=O)O)OCC3 (stereo not given) [ETODOLAC] | Not Active | Not Active | Not Active | Not Active | Not Active | Not Active | Not Active |  |  |  | 
12 | Cc1c(-c2ccccc2)oc2c(C(=O)OCCN3CCCCC3)cccc2c1=O [FLAVOXATE] | Not Active | Not Active | Not Active | Not Active | Not Active | Not Active | Not Active |  |  |  | 
13 | Nc1nc(=O)[nH]cc1F [FLUCYTOSINE] | Not Active | Not Active | Not Active | Not Active | Not Active | Not Active | Not Active |  |  |  | 
14 | O=C1OC2(c3ccc(O)cc3Oc3cc(O)ccc32)c2ccccc21 [FLUORESCEIN] | Not Active | Not Active | Not Active | Not Active | Not Active | Not Active | Not Active |  |  |  | 
15 | CC(=O)[C@@]1(O)CC[C@H]2[C@@H]3C[C@H](C)C4=CC(=O)C=C[C@]4(C)[C@@]3(F)[C@@H](O)C[C@@]21C [FLUOROMETHOLONE] | Not Active | Not Active | Not Active | Not Active |  | Not Active | Not Active | 815 nM | 106 nM |  | 
16 | O=c1[nH]cc(F)c(=O)[nH]1 [FLUOROURACIL] | Not Active | Not Active | Not Active | Not Active | Not Active | Not Active | Not Active |  |  |  | 

From ChEMBL document CHEMBL1909046, “DrugMatrix in vitro pharmacology data”
